Data on two compounds can be found in patent US11598701B1, “Method and system for lysing a liquid sample with augmented oxidizing agents to create a solution with a reduced microbial concentration and precipitate formation” (BIS SCIENCE LLC, priority 2021, dated 2023).

“And” between values parts separate entries of the source, which are not always exact repeats. Equal entries are not always repeated.

In the experiment the test system is S. aureus ATCC 6538. In words: Antimicrobial suspension test of H2O2 with and without photon activation. It counts as cell-based. Conditions: contact time 5 minutes; for Average CFU/ML: average of replicates; for CFU/ML: single replicate.

With `OO` [.3% H2O2 no photon activation, H2O2], the “% reduction Compared to controls” value is listed as “No reduction”; the “LOG 10 Reduction compared to controls” value is reported as “No reduction”; the “Average CFU/ML” value stood at 4.05E+06 CFU/ML; the CFU/ML was 4.10E+06 CFU/ML and 4.00E+06 CFU/ML.
For the compound `OO` [1 ppm H2O2 no photon activation, H2O2], the “% reduction Compared to controls” value is “No reduction”, the “LOG 10 Reduction compared to controls” value is reported as “No reduction”, the “Average CFU/ML” value is 4.05E+06 CFU/ML and the CFU/ML was 4.10E+06 CFU/ML. Under “listed as l ppm H2O2 no photon activation”, this compound yielded a CFU/ML of 4.10E+06 CFU/ML.
